Measurements from patent US6528511B2, “Partial fatty acid oxidation inhibitors in the treatment of congestive heart failure” (CV Therapeutics, Inc., priority 2000, dated 2003).
Like-named read-outs stand apart in the source and are kept apart here.

Legend:
[1] = Solubility of ranolazine in aqueous solutions versus solution pH; assay type: physicochemical
[2] = Ascending-dose SR bid study in healthy male volunteers, Day 5 pharmacokinetics of racemate and enantiomers; assay type: in vivo, human; settings: for concentration at 96 h / concentration at 108 h: male, human, plasma, oral; for concentration at 96 h: read-out: C96h; for concentration at 108 h: read-out: C108h; for Differences in pharmacokinetic parameters between enantiomers: multiple dosing with SR formulation
Experimental: This Example evaluated the safety and tolerability of administering racemic ranolazine free base formulations as in Example 3D. The individual and mean concentrations of racemic ranolazine and its enantiomers, (R)-(+)-N-(2,6-dimethylphenyl)-4-[2-hydroxy-3-(2 methoxyphenoxy)-propyl]-1-piperazineacetamide, (S)-(−)-N-(2,6-dimethylphenyl)-4-[2hydroxy-3-(2-methoxyphenoxy)-propyl]-1-piperazineacetamide in human plasma were also determined.
The study was performed with ascending doses of sustained release ranolazine dosage forms. Before and at intervals during and after the dosing period, blood samples were drawn for ranolazine assay and blood pressure, heart rate, ECG and symptoms were monitored throughout. Data summaries were reviewed after each phase before proceeding to the next phase of the study. Eight subjects, all healthy male volunteers aged between 18 and 40 entered and all completed the study and were available for pharmacokinetic and safety analysis. The subjects were each given doses of the various types of ranolazine free base in the form of sustained release tablets including 500 mg and 750 mg tablets or with matching placebo as necessary (2×750 mg size plus 1×500 mg size) to make unit oral doses of 1500 and 2000 mg.
In each phase: one dose bid for four days with a single dose on Day 5. On day 5 each volunteer underwent a full pharmacokinetic profile including supine and erect blood pressure (BP) and heart rate, ECG data, adverse events, clinical chemistry and hematology results, urinalysis results.
These tests were made using two-sided t-tests with estimates of variability from the ANOVA models. Steady state was also assessed by comparing means for C48 h, C72 h and C96 h using a mixed effects ANOVA model and untransformed and log, transformed data. For hemodynamic parameters, Day 1 pre-dose treatment means and Day 5 data were compared across treatments via two-sided t-tests using estimates of variability from mixed effects ANOVA models. Ninety and 95% confidence intervals were calculated for the treatment comparisons. No adjustments were made for multiple comparisons.

[3] = tested on: Patients, with or without congestive heart failure, with reproducible angina-limited exercise duration; assay: Exercise treadmill tolerance testing (ETT), modified Bruce protocol, crossover versus placebo; assay type: in vivo, human; settings: 500-1500 mg bid
Experimental: Patients, with or without congestive heart failure were withdrawn from anti-anginal drugs with reproducible anginalimited exercise duration and >1 mm ST depression were randomized to Ran (500 mg bid, 1000 mg bit and 1500 mg bid) and matching placebo (Pbo) in a double-blind, four-period, Latin square crossover design. Exercise treadmill tolerance testing (ETT) was performed following a modified Bruce protocol, at trough (12 hr after dosing) and peak (4 hr after dosing) dosing times.

dogs with heart failure = assay: Canine model of congestive heart failure (intracoronary microembolizations), hemodynamic and angiographic measurements; assay type: in vivo, dog; settings: iv bolus 0.5 mg/kg then 1.0 mg/kg/hr for 40 min
Experimental: The efficacy of ranolazine was studied using a canine model of congestive heart failure. Chronic LV dysfunction and failure was produced by multiple sequential intracoronary embolizations with polystyrene Latex microspheres (70-102 μm in diameter) which results in loss of viable myocardium. In the present study, 13 healthy mongrel dogs weighing between 23 and 25 kg underwent coronary microembolizations to produce heart failure. Intracoronary microembolizations were performed during cardiac catheterization under general anesthesia and sterile conditions. The anesthesia regimen consisted of intravenous oxymorphone hydrochloride (0.22 mg/kg), diazepam (0.17 mg/kg) and sodium pentobarbital (150-250 mg to effect). Dogs underwent an average of 5 microembolization procedures performed 1 to 3 weeks apart. Embolizations were discontinued when LV ejection fraction, determined angiographically, was <30%. Dogs were maintained for a period of 2-3 weeks to ensure that infarctions produced by the last microembolization were completely healed before studies were initiated. […] (The study was approved by the Henry Ford Health System Care of Experimental Animals Committee and conformed to the “Position of the American Heart Association on Research Animal Use,” adopted by the Association in November 1984, and to the Guiding Principles of the American Physiological Society on use of research animals). On the day of the study and following general anesthesia, aortic and LV pressure were measured with a catheter-tip micromanometer (Millar Instruments, Houston, Tex.) positioned through a femoral arteriotomy. Single-plane left ventriculograms were obtained during each catheterization after completion of the hemodynamic measurements with the dog placed on its right side. Ventriculograms were recorded on 35 mm cine film at 30 frames per second during the injection of 20 ml of contrast material (Reno-M-60, Squib, Princeton, N.J.). Correction for image magnification was made with a calibrated radiopaque grid placed at the level of the LV. Left ventricular end-systolic and end-diastolic volumes were calculated from ventricular silhouettes using the area-length method. The LV ejection fraction was calculated as the ratio of the difference of end-diastolic volume and end-systolic volume to end-diastolic volume times 100. Stroke volume was calculated as the difference between LV end-systolic and end-diastolic volumes obtained from the ventriculogram. Cardiac output was calculated as the product of stroke volume and heart rate. Extra systolic and post-extra systolic beats were excluded from all analyses. In each normal or heart failure dog, ranolazine dihydrochloride was administered in saline as an intravenous bolus injection of 0.5 mg/kg followed by a continuous intravenous infusion of 1.0 mg/kg/hr for 40 min. Arterial blood samples were drawn for determination of plasma ranolazine concentration. Samples were obtained at 5, 10, 20, 30, 35 and 40 min after initiation of treatment. Ranolazine was measured by high performance liquid chromatography (HPLC) using mass spectral detection. Following the withdrawal of the final blood sample at 40 min, hemodynamic and angiographic measurements were repeated. Each animal served as its own control. Pre-treatment values were compared to post-treatment values using a two-tailed paired Student's t-test with significance set at p<0.05. Data are presented as the mean±standard error of the mean.

[4] = Arterial plasma ranolazine concentration in normal and heart failure dogs (HPLC-MS); assay type: in vivo, dog; settings: for Average ranolazine concentration during the final 10 minutes of treatment: dihydrochloride iv bolus 0.5 mg/kg then 1.0 mg/kg/hr for 40 min, mean±SEM
Experimental: In each normal or heart failure dog, ranolazine dihydrochloride was administered in saline as an intravenous bolus injection of 0.5 mg/kg followed by a continuous intravenous infusion of 1.0 mg/kg/hr for 40 min. Arterial blood samples were drawn for determination of plasma ranolazine concentration. Samples were obtained at 5, 10, 20, 30, 35 and 40 min after initiation of treatment. Ranolazine was measured by high performance liquid chromatography (HPLC) using mass spectral detection. Following the withdrawal of the final blood sample at 40 min, hemodynamic and angiographic measurements were repeated.

For `COc1ccccc1OCC(O)CN1CCN(CC(=O)Nc2c(C)cccc2C)CC1` (racemic) [ranolazine, (±)-N-(2,6-dimethylphenyl)-4-[2-hydroxy-3-(2-methoxyphenoxy)-propyl]-1-piperazineacetamide], the “USP Solubility Class” value ([1]; Solution pH 4.81) was “Freely Soluble”, the “USP Solubility Class” value ([1]; Solution pH 4.89) was “Soluble” and the “USP Solubility Class” value ([1]; Solution pH 4.90) was “Soluble”. For the same molecule, the “USP Solubility Class” value ([1]; Solution pH 5.04) was “Soluble”, the “USP Solubility Class” value ([1]; Solution pH 5.35) was “Sparingly Soluble” and the “USP Solubility Class” value ([1]; Solution pH 5.82) was “Slightly soluble”. For the same molecule, the “USP Solubility Class” value ([1]; Solution pH 6.46) was “Slightly soluble”, the “USP Solubility Class” value ([1]; Solution pH 6.73) was “Very slightly soluble” and the “USP Solubility Class” value ([1]; Solution pH 7.08) was “Very slightly soluble”. For the same molecule, the “USP Solubility Class” value ([1]; Solution pH 7.59 (unbuffered water)) was “Very slightly soluble”, the “USP Solubility Class” value ([1]; Solution pH 7.79) was “Very slightly soluble” and the “USP Solubility Class” value ([1]; Solution pH 12.66) was “Very slightly soluble”. For the same molecule, the “Solubility in aqueous solutions” value ([1]; pH above about 6.5) was “relatively insoluble”, the Cave ([2]; Day 5, 1500 mg SR bid) was 4.126 ± 1.995 µg/mL and the Cmin ([2]; Day 5, 1500 mg SR bid) was 2.932 ± 1.918 µg/mL. The Degree of fluctuation ([2]; Day 5, 1500 mg SR bid) was 0.664 ± 0.336, the Cave ([2]; Day 5, 2000 mg SR bid) was 5.705 ± 2.153 µg/mL and the Cmin ([2]; Day 5, 2000 mg SR bid) was 4.149 ± 2.228 µg/mL. For the same molecule, the Degree of fluctuation ([2]; Day 5, 2000 mg SR bid) was 0.591 ± 0.240, the “Steady-state plasma levels attained by” value ([2]; SR bid dosing, ranolazine free base) was at most 4 days and the concentration at 96 h ([2]; 1500 mg SR bid) was 3.66 ± 1.92 µg/mL. It also gave a concentration at 108 h ([2]; 1500 mg SR bid) of 2.94 ± 1.94 µg/mL, a concentration at 96 h ([2]; 2000 mg SR bid) of 5.04 ± 1.8 µg/mL and a concentration at 108 h ([2]; 2000 mg SR bid) of 4.4 ± 2.4 µg/mL. For the same molecule, the “Effects vs. Pbo on rest or exercise blood pressure or heart rate” value [3] was “no clinically meaningful effects”, the “Exercise duration times in comparison to the placebo” value [3] was “improved” and the “Effect on heart rate” value (dogs with heart failure; post- vs pre-treatment) was “no significant effects”. The “Effect on mean aortic pressure” value (dogs with heart failure; post- vs pre-treatment) was “no significant effects”, the LV ejection fraction (dogs with heart failure; post- vs pre-treatment) was “significant increase” and the “LV peak+dP/dt” value (dogs with heart failure; post- vs pre-treatment) was “significant increase”. The LV stroke volume (dogs with heart failure; post- vs pre-treatment) was “significant increase”, the “LV peak−dP/dt (diastolic function)” value (dogs with heart failure; data not shown) was “increase” and the Average ranolazine concentration during the final 10 minutes of treatment ([4]; dogs with heart failure) was 0.33 ± 0.04 µg/mL. The “Time by which arterial ranolazine levels stabilized following the bolus injection” value ([4]; iv bolus plus infusion, dogs) was at most 10 min and the Average ranolazine concentration during the final 10 minutes of treatment ([4]; normal dogs) was 0.3 ± 0.02 µg/mL.

`COc1ccccc1OC[C@H](O)CN1CCN(CC(=O)Nc2c(C)cccc2C)CC1` [(+)R ranolazine, (R)-(+)-N-(2,6-dimethylphenyl)-4-[2-hydroxy-3-(2 methoxyphenoxy)-propyl]-1-piperazineacetamide] gave a Cave ([2]; Day 5, 1500 mg SR bid) of 2.144 ± 1.115 µg/mL, a Cmin ([2]; Day 5, 1500 mg SR bid) of 1.436 ± 1.046 µg/mL and a Degree of fluctuation ([2]; Day 5, 1500 mg SR bid) of 0.833 ± 0.402. The concentration at 96 h ([2]; 1500 mg SR bid) was 2.01 ± 1.14 µg/mL, the concentration at 108 h ([2]; 1500 mg SR bid) was 1.45 ± 1.07 µg/mL and the “Differences in pharmacokinetic parameters between enantiomers” value [2] was “no differences”.

With `COc1ccccc1OC[C@@H](O)CN1CCN(CC(=O)Nc2c(C)cccc2C)CC1` [(−)S ranolazine, (S)-(−)-N-(2,6-dimethylphenyl)-4-[2hydroxy-3-(2-methoxyphenoxy)-propyl]-1-piperazineacetamide] the Cave ([2]; Day 5, 1500 mg SR bid) was 2.201 ± 1.237 µg/mL, the Cmin ([2]; Day 5, 1500 mg SR bid) was 1.514 ± 1.201 µg/mL and the Degree of fluctuation ([2]; Day 5, 1500 mg SR bid) was 0.824 ± 0.443. The concentration at 96 h ([2]; 1500 mg SR bid) was 2.4 ± 1.21 µg/mL, the concentration at 108 h ([2]; 1500 mg SR bid) was 1.54 ± 1.26 µg/mL and the “Differences in pharmacokinetic parameters between enantiomers” value [2] was “no differences”.
